The text below walks through data of ChEMBL document CHEMBL1933067, “The design, synthesis and in vitro immunosuppressive evaluation of novel isobenzofuran derivatives” (Bioorg Med Chem Lett, 2012).

Each structure is given as a SMILES string.

In the first assay the test system is T-cell. Description: Immunosuppressive activity in mouse T-cells assessed as inhibition of concanavalin A-induced proliferation. It counts as functional, cell-based.
The IC50 is the concentration that inhibits the measured activity by half. `O=C(Nc1cccc([N+](=O)[O-])c1)C(=O)Nc1ccc2c(c1)COC2=O`: the 50% inhibitory concentration (IC50) worked out at 1820 nM.
Turning to `O=C(Nc1ccc(O)cc1)C(=O)Nc1ccc2c(c1)COC2=O`, the IC50 came out at 5030 nM.
On the same count and under the same terms, to `COc1cc(CCC(=O)Nc2ccc3c(c2)COC3=O)cc(OC)c1OC` belongs 7740 nM.
Still for that read-out and setting: under `O=C(Nc1ccc(F)cc1)Nc1ccc2c(c1)COC2=O` stands 4190 nM.
The same measure, in the same setting: under `CCCNC(=O)Nc1ccc2c(c1)COC2=O` stands 58100 nM.
With `Cc1ccccc1NC(=O)Nc1ccc2c(c1)COC2=O`, the concentration for half-maximal inhibition (IC50) worked out at 900 nM.
Same read-out and setting: under `O=C(/C=C/c1ccccn1)Nc1ccc2c(c1)COC2=O` stands 17800 nM.
Same read-out and setting: under `CC(C)c1ccc(/C=C/C(=O)Nc2ccc3c(c2)COC3=O)cc1` stands 1590 nM.
Still for that read-out and setting: under `Cc1ccccc1NC(=O)C(=O)Nc1ccc2c(c1)COC2=O` stands 5510 nM; under `O=C(Nc1ccccc1)Nc1ccc2c(c1)COC2=O`, 7090 nM; under `Cc1cccc(NC(=O)Nc2ccc3c(c2)COC3=O)c1`, 2260 nM.
As to `COc1ccc(/C=C/C(=O)Nc2ccc3c(c2)COC3=O)cc1OC`, the IC50 is 29 nM.
Same read-out and setting: under `CC(=O)Oc1cccc(/C=C/C(=O)Nc2ccc3c(c2)COC3=O)c1` stands 30 nM; under `O=C(/C=C/c1ccco1)Nc1ccc2c(c1)COC2=O`, 9000 nM.
As to `O=C(Nc1ccc(Cl)cc1)C(=O)Nc1ccc2c(c1)COC2=O`, the IC50 amounted to 2240 nM.
Same read-out and setting: to `CN(C(=O)Nc1ccc2c(c1)COC2=O)c1ccccc1` belongs > 100000 nM; to `N#Cc1ccc(/C=C/C(=O)Nc2ccc3c(c2)COC3=O)cc1`, 43100 nM.
Same read-out and setting: under `CN(Cc1ccccc1)C(=O)C(=O)Nc1ccc2c(c1)COC2=O` stands 14300 nM.
On the same count and under the same terms, under `COc1c(C)c2c(c(O)c1C/C=C(\C)CCC(=O)O)C(=O)OC2` [MYCOPHENOLIC ACID] stands 280 nM; under `COc1cc(/C=C/C(=O)Nc2ccc3c(c2)COC3=O)ccc1OC(C)=O`, 136 nM.
Turning to `O=C(/C=C/c1ccccc1Br)Nc1ccc2c(c1)COC2=O`, the IC50 was > 100000 nM.
Regarding `O=C(/C=C/c1cccc(F)c1)Nc1ccc2c(c1)COC2=O`, the concentration for half-maximal inhibition (IC50) was 34 nM.
As to `COc1ccccc1/C=C/C(=O)Nc1ccc2c(c1)COC2=O`, the half-inhibitory concentration (IC50) is 39 nM.
Still for that read-out and setting: under `O=C(Nc1ccccc1)C(=O)Nc1ccc2c(c1)COC2=O` stands 36100 nM; under `COc1cc(CN(C)C(=O)C(=O)Nc2ccc3c(c2)COC3=O)cc(OC)c1OC`, 3280 nM.
Take `O=C(Nc1ccc2c(c1)COC2=O)NC1CCCCC1`: the IC50 is 12700 nM.
On to `CC(C)(C)c1ccc(/C=C/C(=O)Nc2ccc3c(c2)COC3=O)cc1`, for which the IC50 was found to be 720 nM.
For `COc1cc(/C=C/C(=O)Nc2ccc3c(c2)COC3=O)cc(OC)c1OC`, the IC50 worked out at 1730 nM.
The same measure, in the same setting: to `O=C(Nc1ccc(Cl)cc1)Nc1ccc2c(c1)COC2=O` belongs 2450 nM; to `CC(=O)Oc1ccc(/C=C/C(=O)Nc2ccc3c(c2)COC3=O)cc1OC(C)=O`, 180 nM.
The same measure, in the same setting: to `O=C(Nc1ccc(F)cc1)C(=O)Nc1ccc2c(c1)COC2=O` belongs 570 nM.
Same read-out and setting: under `O=C(Nc1ccc(I)cc1)Nc1ccc2c(c1)COC2=O` stands 1370 nM; under `O=C(/C=C/c1ccccc1)Nc1ccc2c(c1)COC2=O`, 7240 nM.
For the compound `CC(C)(C)NC(=O)C(=O)Nc1ccc2c(c1)COC2=O`, the IC50 came to 3400 nM.
The same measure, in the same setting: to `Cc1ccc(NC(=O)Nc2ccc3c(c2)COC3=O)cc1` belongs 2670 nM.
Regarding `COc1ccc(NC(=O)C(=O)Nc2ccc3c(c2)COC3=O)cc1`, the IC50 stood at 153000 nM.

The next assay concerns the target Inosine-5'-monophosphate dehydrogenase 2 (Homo sapiens, UniProt P12268). Nature of the assay: Inhibition of IMPDH2.
`COc1ccc(/C=C/C(=O)Nc2ccc3c(c2)COC3=O)cc1OC` yielded a half-maximal inhibitory concentration (IC50) of 2.1 µM.
On the same count and under the same terms, to `CC(=O)Oc1cccc(/C=C/C(=O)Nc2ccc3c(c2)COC3=O)c1` belongs 8.8 µM; to `O=C(/C=C/c1cccc(F)c1)Nc1ccc2c(c1)COC2=O`, 4.5 µM.
As to `CC(C)(C)c1ccc(/C=C/C(=O)Nc2ccc3c(c2)COC3=O)cc1`, 3.2 µM corresponded to half-maximal inhibition (IC50).
On the same count and under the same terms, under `CC(=O)Oc1ccc(/C=C/C(=O)Nc2ccc3c(c2)COC3=O)cc1OC(C)=O` stands 2.8 µM.
